These results are taken from patent US20240279215A1 (Cytokinetics, Incorporated, priority 2022, published 2024).

The test system of one data set is P-gp (MDR1). The data set is described as follows: MDR1-MDCK bidirectional permeability assay. The settings on record: dog, MDCK-MDR1, pH 7.4, Efflux ratio.
In data set [1] the test system is MDCK-MDR1 cells (P-gp, MDR1). The data set is described as follows: MDR1-MDCK bidirectional permeability assay. The settings on record: for PappAB: A to B.
Procedure: (§1) A bidirectional permeability assay using Madin Darby canine kidney cells expressing multi-drug resistance gene 1 (MDCK-MDR1) is routinely used to evaluate discovery compounds' BBB permeability and drug efflux toward the advancement of discovery compounds with brain penetration.
(§2) MDCK-MDR1 Cells (NIH cell line) were obtained from the National Institutes of Health. […] Cell culture medium was replaced every other day, beginning no later than 24 hours after the initial plating. […] The dosing solution concentration was 1 μM for the test article in the assay buffer. Cell monolayers were dosed on the apical side (A-to-B) or basolateral side (B-to-A) and incubated at 37° C. under an atmosphere of 5% CO2 in a humidified incubator. Samples were taken from the donor and receiver chambers at 120 minutes. Each determination was performed in duplicate. After the 120 min transport period, the flux of lucifer yellow was also measured for each monolayer to ensure no damage was inflicted to the cell monolayers during the transport period. All samples were assayed by LC-MS/MS (Waters XSelect HSS T3 C18, 2.5 m, 2.1×50 mm) using electrospray ionization with 0.1% formic acid in water (mobile phase A) and 0.1% formic acid in acetonitrile (mobile phase B) as mobile phases. The apparent permeability coefficient (Papp), in units of cm per second, was calculated for MDCK-MDR1 Cells (NIH cell line) drug transport assays using the following equation:
(§3) Where VA is the volume (in mL) in the acceptor well, Area is the surface area of the membrane (0.143 cm^2 for Transwell-96 Well Permeable Supports), and time is the total transport time in seconds.
(§4) The leakage of Lucifer Yellow (LY), in unit of percentage (%), can be calculated using the following equation:
(§5) LY leakage of <1% is acceptable to indicate the well-qualified MDCK-MDR1(NIH) monolayer.
In a further data set the target is human NAMPT (Homo sapiens (Human), UniProt P43490). The data set is described as follows: NMN fluorescence biochemical assay (human recombinant NAMPT enzyme assay). The gist of the method:
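NMN formed was detected by fluorescence (Ex/Em 355/460 nm) after acetophenone, KOH and formic acid derivatization. The cell-free reaction ran 60 min at ambient temperature with 6 nM human NAMPT, 150 μM nicotinamide, 20 μM PRPP, 2.5 mM ATP, pH 7.2 HEPES, and compound dose responses.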

“And” between values parts separate entries of the source, which are not always exact repeats. Identical values can stand only once.

Chain of human NAMPT (P43490 whole entry): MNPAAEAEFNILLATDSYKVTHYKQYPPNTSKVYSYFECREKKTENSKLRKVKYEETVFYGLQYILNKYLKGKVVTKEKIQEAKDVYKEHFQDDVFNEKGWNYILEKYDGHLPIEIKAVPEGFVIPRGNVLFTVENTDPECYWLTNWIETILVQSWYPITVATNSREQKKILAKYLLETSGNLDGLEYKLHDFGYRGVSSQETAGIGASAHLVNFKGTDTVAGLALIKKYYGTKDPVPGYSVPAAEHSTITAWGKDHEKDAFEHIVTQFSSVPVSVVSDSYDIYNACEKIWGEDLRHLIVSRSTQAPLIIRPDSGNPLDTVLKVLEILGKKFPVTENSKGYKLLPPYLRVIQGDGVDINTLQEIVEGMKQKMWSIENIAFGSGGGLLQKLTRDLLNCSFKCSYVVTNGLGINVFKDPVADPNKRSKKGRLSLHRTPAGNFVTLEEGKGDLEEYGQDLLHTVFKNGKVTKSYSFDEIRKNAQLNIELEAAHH
Procedure for P-gp (MDR1): as §1, §2, §3, §4, §5

What is called efflux ratio is the permeability from basolateral to apical divided by that in the opposite direction, in the common usage. For `O=C(NCc1ccc(Cl)cc1)Nc1ccc(CC2CCN(C3COC3)CC2)cc1` [Comparator 1, 1-(4-chlorobenzyl)-3-(4-((1-(oxetan-3-yl)piperidin-4-yl)methyl)phenyl)urea, reference compound], the efflux ratio at 120 min, 1 μM in the data set on P-gp (MDR1) was 14.7. Moreover, the PappAB in data set [1] turned out to be 1.85.

The term EC50 denotes the concentration at which the effect is half-maximal. With `O=C(Nc1ccc(CN2CCC[C@@H]2c2cccnc2)cc1)OCc1ccc(CO)cc1` [Compound 5, [4-(hydroxymethyl)phenyl]methyl N-(4-{[(2R)-2-(pyridin-3-yl)pyrrolidin-1-yl]methyl}phenyl)carbamate], on human NAMPT, the “AC1.4 Human” value amounted to 0.07 µM and the EC50 came to 0.29 µM. The efflux ratio at 120 min, 1 μM in the data set with P-gp (MDR1) came out at 7.02. This molecule displayed a PappAB in data set [1] of 5.32.

Regarding `CC(=O)N1CCC(c2ccc(NC(=O)OCc3cnco3)cc2)CC1` [Compound 8, 1,3-oxazol-5-ylmethyl N-[4-(1-acetylpiperidin-4-yl)phenyl]carbamate], on human NAMPT, the “AC1.4 Human” value worked out at 0.14 µM and the half-maximal effective concentration (EC50) came to 32.6 µM. In addition, the efflux ratio at 120 min, 1 μM in the data set with P-gp (MDR1) worked out at 5.41. Moreover, the PappAB in data set [1] is 9.77.

As for `Cc1ccc(C(=O)NCc2ccc(NC(=O)OCc3ccc(Cl)cc3)cc2)cn1` [Compound 21, (4-chlorophenyl)methyl N-(4-{[(6-methylpyridin-3-yl)formamido]methyl}phenyl)carbamate], at human NAMPT, the “AC1.4 Human” value was found to be 0.30 µM and the half-maximal effective concentration (EC50) was 2 µM. The efflux ratio at 120 min, 1 μM with P-gp (MDR1) was 3.74. Further, the PappAB in data set [1] was 2.79.

As to `COC(=O)N1CCC(Cc2ccc(NC(=O)OCc3ccncc3)cc2)CC1` [Compound 23, methyl 4-(4-(((pyridin-4-ylmethoxy)carbonyl)amino)benzyl)piperidine-1-carboxylate], on human NAMPT, the “AC1.4 Human” value was determined as 0.32 µM and the EC50 came out at 2.76 µM. For the same molecule, the efflux ratio at 120 min, 1 μM in the data set on P-gp (MDR1) worked out at 2. The same molecule returned a PappAB in data set [1] of 6.30.

Regarding `CN(C)C(=O)N1CCC(CCc2ccc(NC(=O)OCc3cnco3)cc2)CC1` [Compound 32, oxazol-5-ylmethyl (4-(2-(1-(dimethylcarbamoyl)piperidin-4-yl)ethyl)phenyl)carbamate], on human NAMPT, the “AC1.4 Human” value came to 0.38 µM and the 50% effective concentration (EC50) was determined as 21 µM. The efflux ratio at 120 min, 1 μM with P-gp (MDR1) stood at 3.32. In data set [1], this molecule had a PappAB of 5.57.

Turning to `CC(=O)N1CCC(Cc2ccc(NC(=O)OCc3ccc(Cl)cc3)cc2)CC1` [Compound 40, 4-chlorobenzyl (4-((1-acetylpiperidin-4-yl)methyl)phenyl)carbamate], at human NAMPT, the “AC1.4 Human” value amounted to 0.43 µM and the EC50 is 2.4 µM. Also, the efflux ratio at 120 min, 1 μM with P-gp (MDR1) was 1.93. For the same molecule, in data set [1], the Efflux ratio is listed as 1.9; the PappAB is 3.38 and 3.4.

With `O=C(Nc1ccc(CC2CCN(C3COC3)CC2)cc1)OCc1ccc(Cl)cc1` [Compound 43, 4-chlorobenzyl (4-((1-(oxetan-3-yl)piperidin-4-yl)methyl)phenyl)carbamate], at human NAMPT, the “AC1.4 Human” value worked out at 0.45 µM and the EC50 came out at 4.56 µM. The efflux ratio at 120 min, 1 μM in the data set on P-gp (MDR1) stood at 0.92. The PappAB in data set [1] was 5.39 and 5.4.

For `O=C(Nc1ccc(CC2CCN(CC(F)F)CC2)cc1)OCc1cnco1` [Compound 59, oxazol-5-ylmethyl (4-((1-(2,2-difluoroethyl)piperidin-4-yl)methyl)phenyl)carbamate], on human NAMPT, the “AC1.4 Human” value was found to be 0.56 µM and the EC50 turned out to be 48.9 µM. For the same molecule, the efflux ratio at 120 min, 1 μM in the data set with P-gp (MDR1) amounted to 1.11. Besides, the PappAB in data set [1] was determined as 13.26.

Consider `O=C(Nc1ccc(CC2CCN(CC(F)(F)F)CC2)cc1)OCc1cnco1` [Compound 70, oxazol-5-ylmethyl (4-((1-(2,2,2-trifluoroethyl)piperidin-4-yl)methyl)phenyl)carbamate], for which, at human NAMPT, the “AC1.4 Human” value came to 0.61 µM and the EC50 is 22.9 µM. Further, the efflux ratio at 120 min, 1 μM with P-gp (MDR1) amounted to 1.04. Further, the PappAB in data set [1] is given as 9.10.

Consider `O=C(Nc1ccc(CCC2CCN(C3COC3)CC2)cc1)OCc1cnco1` [Compound 132, oxazol-5-ylmethyl (4-(2-(1-(oxetan-3-yl)piperidin-4-yl)ethyl)phenyl)carbamate], for which, at human NAMPT, the “AC1.4 Human” value came out at 1.06 µM and the 50% effective concentration (EC50) is 41.1 µM. For the same molecule, the efflux ratio at 120 min, 1 μM in the data set on P-gp (MDR1) came to 2.26. The molecule further returned a PappAB in data set [1] of 13.54.

On to `COC(=O)N1CCC(Cc2ccc(NC(=O)OCc3cnco3)cc2)C2CC21` (centres unmarked) [Compound 456, methyl 5-(4-(((oxazol-5-ylmethoxy)carbonyl)amino)benzyl)-2-azabicyclo[4.1.0]heptane-2-carboxylate], for which, on human NAMPT, the “AC1.4 Human” value came out at 0.23 µM and the EC50 turned out to be 17.8 µM.

As for `CC(=O)N1CCC(Cc2ccc(NC(=O)OCc3cnco3)cc2)C2CC21` (centres unmarked) [Compound 457, oxazol-5-ylmethyl (4-((2-acetyl-2-azabicyclo[4.1.0]heptan-5-yl)methyl)phenyl)carbamate], on human NAMPT, the “AC1.4 Human” value was 0.250 µM and the EC50 turned out to be 21.6 µM.

As to `O=C(Nc1ccc(CC2CCN(C(=O)N3CCOCC3)CC2)cc1)OCc1cnco1` [Compound 458, oxazol-5-ylmethyl (4-((1-(morpholine-4-carbonyl)piperidin-4-yl)methyl)phenyl)carbamate], on human NAMPT, the “AC1.4 Human” value is 0.13 µM and the EC50 came out at 15.2 µM.

Consider `O=C(Nc1ccc(CC2CCN(S(=O)(=O)C3CCC3)CC2)cc1)OCc1cnco1` [Compound 459, oxazol-5-ylmethyl (4-((1-(cyclobutylsulfonyl)piperidin-4-yl)methyl)phenyl)carbamate], for which, on human NAMPT, the “AC1.4 Human” value stood at 0.18 µM and the half-maximal effective concentration (EC50) worked out at 7.06 µM.

As for `O=C(Nc1ccc(CC2CCN(S(=O)(=O)C3CC3)CC2)cc1)OCc1cnco1` [Compound 460, oxazol-5-ylmethyl (4-((1-(cyclopropylsulfonyl)piperidin-4-yl)methyl)phenyl)carbamate], at human NAMPT, the “AC1.4 Human” value was determined as 0.24 µM and the EC50 was 12.2 µM.

`O=C(Nc1ccc(CC2CCN(C(=O)N3CCCCC3)CC2)cc1)OCc1cnco1` [Compound 461, oxazol-5-ylmethyl (4-((1-(piperidine-1-carbonyl)piperidin-4-yl)methyl)phenyl)carbamate]: at human NAMPT, the “AC1.4 Human” value came to 0.13 µM and the EC50 is 9.34 µM.

As for `O=C(Nc1ccc(CC2CCN(C(=O)N3CCCC3)CC2)cc1)OCc1cnco1` [Compound 462, oxazol-5-ylmethyl (4-((1-(pyrrolidine-1-carbonyl)piperidin-4-yl)methyl)phenyl)carbamate], at human NAMPT, the “AC1.4 Human” value came to 0.18 µM and the concentration giving a half-maximal response (EC50) came out at 13.3 µM.

Take `O=C(Nc1ccc(CC2CCN(C(=O)N3CC(F)(F)C3)CC2)cc1)OCc1cnco1` [Compound 463, oxazol-5-ylmethyl (4-((1-(3,3-difluoroazetidine-1-carbonyl)piperidin-4-yl)methyl)phenyl)carbamate]: on human NAMPT, the “AC1.4 Human” value came out at 0.42 µM and the half-maximal effective concentration (EC50) turned out to be 43.6 µM.

Turning to `O=C(Nc1ccc(CC2CCN(S(=O)(=O)N3CCC3)CC2)cc1)OCc1cnco1` [Compound 465, oxazol-5-ylmethyl (4-((1-(azetidin-1-ylsulfonyl)piperidin-4-yl)methyl)phenyl)carbamate], on human NAMPT, the “AC1.4 Human” value came to 0.14 µM and the EC50 is 7.25 µM.

`O=C(Nc1ccc(CC2CCN(C3COC3)CC2)cc1)OCc1cncs1` [Compound 466, thiazol-5-ylmethyl (4-((1-(oxetan-3-yl)piperidin-4-yl)methyl)phenyl)carbamate]: at human NAMPT, the “AC1.4 Human” value was 1.19 µM and the half-maximal effective concentration (EC50) amounted to 14.5 µM.

Turning to `O=C(Nc1ccc(CC2CCN(CC(F)(F)F)CC2)cc1)OCc1cncs1` [Compound 467, thiazol-5-ylmethyl (4-((1-(2,2,2-trifluoroethyl)piperidin-4-yl)methyl)phenyl)carbamate], at human NAMPT, the “AC1.4 Human” value was 1.07 µM and the EC50 was 14.5 µM.

Consider `O=C(Nc1ccc(CC2CCN(C(=O)N3CCC3)CC2)cc1)OCc1cnco1` [Compound 468, oxazol-5-ylmethyl (4-((1-(azetidine-1-carbonyl)piperidin-4-yl)methyl)phenyl)carbamate], for which, on human NAMPT, the “AC1.4 Human” value was 0.13 µM and the EC50 is 14.5 µM.

Regarding `O=C(Nc1ccc(CC2CCN(C(=O)C3CCC3)CC2)cc1)OCc1cnco1` [Compound 469, oxazol-5-ylmethyl (4-((1-(cyclobutanecarbonyl)piperidin-4-yl)methyl)phenyl)carbamate], on human NAMPT, the “AC1.4 Human” value stood at 0.24 µM and the half-maximal effective concentration (EC50) is 26.1 µM.

`O=C(Nc1ccc(CC2CCN(C(=O)C3CC(F)(F)C3)CC2)cc1)OCc1cnco1` [Compound 470, oxazol-5-ylmethyl (4-((1-(3,3-difluorocyclobutane-1-carbonyl)piperidin-4-yl)methyl)phenyl)carbamate]: at human NAMPT, the “AC1.4 Human” value worked out at 0.98 µM and the EC50 came to 37.5 µM.

As to `O=C(Nc1ccc(CC2CCN(CC3CCO3)CC2)cc1)OCc1cnco1` (centres unmarked) [Compound 471, oxazol-5-ylmethyl (4-((1-(oxetan-2-ylmethyl)piperidin-4-yl)methyl)phenyl)carbamate], at human NAMPT, the “AC1.4 Human” value came to 0.50 µM and the half-maximal effective concentration (EC50) was determined as 15 µM.

With `CC(=O)N1CC2(CC(Cc3ccc(NC(=O)OCc4cnco4)cc3F)C2)C1` [Compound 472, oxazol-5-ylmethyl (4-((2-acetyl-2-azaspiro[3.3]heptan-6-yl)methyl)-3-fluorophenyl)carbamate], on human NAMPT, the “AC1.4 Human” value was 0.11 µM and the EC50 was 5.63 µM.

Regarding “tert-butyl 4-(4-(((oxazol-5-ylmethoxy)carbonyl)amino)phenethyl)piperidine-1-carboxylate [Compound 121]”, on human NAMPT, the “AC1.4 Human” value stood at 0.97 µM and the 50% effective concentration (EC50) stood at 14.5 µM.
